Like-named read-outs stand apart in the source and are kept apart here.
Experiments:
hGIPR = molecular target: T1, hGIPR (Homo sapiens, UniProt P48546); experiment: Functional cAMP formation (HTRF) in HEK-293 clonal cells expressing hGIPR, 0.1% bovine casein, without or with 1.0% human serum albumin; format: cell-based; settings: 37° C.; for Emax: HEK293, cAMP, 0.1% bovine casein and 1.0% human serum albumin, percent of maximal response to GIP(1-42)NH2, read-out: hGIPR Emax, % ± SEM; for EC50: cAMP, 0.1% bovine casein (no human serum albumin), geometric mean, read-out: hGIPR EC50, nM (SEM, n)
T1 construct: expressed in transfected cells
T1 sequence (P48546 22-466): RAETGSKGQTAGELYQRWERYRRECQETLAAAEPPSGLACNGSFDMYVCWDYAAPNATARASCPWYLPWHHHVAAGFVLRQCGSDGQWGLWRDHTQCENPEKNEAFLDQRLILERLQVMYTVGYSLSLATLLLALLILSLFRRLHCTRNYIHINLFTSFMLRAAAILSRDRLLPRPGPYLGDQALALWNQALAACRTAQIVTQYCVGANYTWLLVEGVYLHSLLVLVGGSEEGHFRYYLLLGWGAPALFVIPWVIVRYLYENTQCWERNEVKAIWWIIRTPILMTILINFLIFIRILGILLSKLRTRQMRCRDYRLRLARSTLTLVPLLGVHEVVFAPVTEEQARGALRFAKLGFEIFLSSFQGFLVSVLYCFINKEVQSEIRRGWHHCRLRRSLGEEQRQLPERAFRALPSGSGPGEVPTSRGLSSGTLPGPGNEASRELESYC
Method in brief: (§1)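 Readings of the HTRF 665/620 nm ratio, which falls as cAMP rises, were converted to nM cAMP using a standard curve after 30 min peptide exposure at 37° C.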

[1] = molecular target: T2, human Gcg receptor (hGcgR) (Homo sapiens, UniProt P47871); experiment: [125I]-Glucagon binding, SPA with membranes of HEK293 cells expressing hGcgR; settings: human GcgR; geometric mean (SEM, n); read-out: Binding Affinity Ki, nM (SEM, n) hGCGR
T2 construct: expressed in transfected cells; crude membranes

hGCGR = molecular target: T3, hGCGR (Homo sapiens, UniProt P47871); experiment: Functional cAMP formation (HTRF) in HEK-293 clonal cells expressing hGCGR, 0.1% bovine casein, without or with 1.0% human serum albumin; format: cell-based; settings: cAMP, 37° C., read-out: hGCGR EC50, nM (SEM, n)
T3 construct: expressed in transfected cells
Method in brief: as §1

[2] = molecular target: T4, human GIP receptor (hGIPR) (Homo sapiens, UniProt P48546); experiment: [125I]-GIP binding, SPA with membranes of CHO cells expressing hGIPR; settings: human GIPR; geometric mean (SEM, n); read-out: Binding Affinity Ki, nM (SEM, n) hGIPR
T4 construct: expressed in transfected cells; crude membranes
T4 sequence (P48546 22-466): T1 sequence (P48546 22-466)

[3] = molecular target: T5, human GLP-1 receptor (hGLP-1R) (Homo sapiens, UniProt P43220); experiment: [125I]-GLP-1 binding, SPA with membranes of HEK293 cells expressing hGLP-1R; settings: human GLP-1R; geometric mean (SEM, n); read-out: Binding Affinity Ki, nM (SEM, n) hGLP-1R
T5 construct: expressed in transfected cells; crude membranes

hGLP-1R = hGLP-1R (Homo sapiens, UniProt P43220); experiment: Functional cAMP formation (HTRF) in HEK-293 clonal cells expressing hGLP-1R, 0.1% bovine casein, without or with 1.0% human serum albumin; format: cell-based; set-up: expressed in transfected cells; settings: 37° C.; for Emax: HEK293, cAMP, percent of maximal response to GLP-1(7-36)NH2, read-out: hGLP-1R Emax, % ± SEM; for EC50: cAMP, 0.1% bovine casein (no human serum albumin), geometric mean, read-out: hGLP-1R EC50, nM (SEM, n)
Method in brief: as §1

[4] = molecular target: T6, human glucose-dependent insulinotropic polypeptide (GIP) receptor (human) (UniProt P48546); experiment: cell-based or functional assay
T6 sequence (looked up): T1 sequence (P48546 22-466)

[5] = molecular target: human glucagon receptor (human) (UniProt P47871); experiment: cell-based or functional assay
[6] = molecular target: human glucagon-like peptide-1 (GLP-1) receptor (human) (UniProt P43220); experiment: cell-based or functional assay
human glucagon receptor = human glucagon receptor (human, UniProt P47871 26-477); experiment: cell-based or functional assay
human GIP receptor = molecular target: T7, human GIP receptor (human, UniProt P48546 22-466); experiment: cell-based or functional assay
T7 sequence (looked up): T1 sequence (P48546 22-466)

human GLP-1 receptor = human GLP-1 receptor (human, UniProt P43220 24-463); experiment: cell-based or functional assay
[7] = 0.1% bovine casein (no human serum albumin), geometric mean
[8] = 0.1% bovine casein and 1.0% human serum albumin, geometric mean (SEM, n)

T2 sequence (P47871 26-477): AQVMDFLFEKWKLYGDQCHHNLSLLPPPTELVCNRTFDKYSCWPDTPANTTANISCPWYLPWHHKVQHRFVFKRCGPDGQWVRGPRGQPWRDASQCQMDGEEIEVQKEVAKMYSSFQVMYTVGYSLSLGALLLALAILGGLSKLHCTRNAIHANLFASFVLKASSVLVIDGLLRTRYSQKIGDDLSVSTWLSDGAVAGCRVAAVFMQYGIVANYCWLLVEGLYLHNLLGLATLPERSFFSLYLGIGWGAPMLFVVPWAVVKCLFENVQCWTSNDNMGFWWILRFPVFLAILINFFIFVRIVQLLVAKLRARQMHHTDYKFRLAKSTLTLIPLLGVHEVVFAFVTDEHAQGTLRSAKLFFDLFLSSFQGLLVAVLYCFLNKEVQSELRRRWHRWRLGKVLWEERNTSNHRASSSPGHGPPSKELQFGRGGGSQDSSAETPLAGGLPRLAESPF
T3 sequence (P47871 26-477): as above
T5 sequence (P43220 24-463): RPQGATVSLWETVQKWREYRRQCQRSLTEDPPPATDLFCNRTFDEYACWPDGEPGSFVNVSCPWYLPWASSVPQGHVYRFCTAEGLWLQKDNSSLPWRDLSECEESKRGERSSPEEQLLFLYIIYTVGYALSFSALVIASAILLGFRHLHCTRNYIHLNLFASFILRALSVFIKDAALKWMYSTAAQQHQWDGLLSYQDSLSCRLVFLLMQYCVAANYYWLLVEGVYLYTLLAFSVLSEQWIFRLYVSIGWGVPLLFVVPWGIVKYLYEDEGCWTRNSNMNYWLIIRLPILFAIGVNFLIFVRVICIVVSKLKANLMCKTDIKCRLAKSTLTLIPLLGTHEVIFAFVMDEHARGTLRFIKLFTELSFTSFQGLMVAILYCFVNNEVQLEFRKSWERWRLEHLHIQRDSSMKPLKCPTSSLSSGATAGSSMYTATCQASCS
Chain of hGLP-1R (P43220 24-463): as above

CC[C@H](C)[C@H](NC(=O)[C@H](CC(C)C)NC(=O)[C@](C)(Cc1ccc(O)cc1)NC(=O)[C@H](CCCCNC(=O)CCCCCNC(=O)COCCOCCNC(=O)CC[C@H](NC(=O)CCCCCCCCCCCCC(=O)O)C(=O)O)NC(=O)[C@@H](NC(=O)[C@H](Cc1ccccc1)NC(=O)[C@H](CCCN)NC(=O)C(C)(C)NC(=O)[C@H](CCC(N)=O)NC(=O)[C@H](C)NC(=O)[C@H](CCC(N)=O)NC(=O)[C@H](CCCN)NC(=O)[C@H](CC(=O)O)NC(=O)[C@H](CC(C)C)NC(=O)[C@](C)(CC(C)C)NC(=O)[C@@H](NC(=O)C(C)(C)NC(=O)[C@H](Cc1ccncc1)NC(=O)[C@H](CC(=O)O)NC(=O)[C@H](CO)NC(=O)[C@@H](NC(=O)[C@](C)(Cc1ccccc1F)NC(=O)[C@@H](NC(=O)CNC(=O)[C@H](CCC(=O)O)NC(=O)C(C)(C)NC(=O)[C@@H](N)Cc1ccc(O)cc1)[C@@H](C)O)[C@@H](C)O)[C@@H](C)CC)[C@@H](C)CC)C(=O)N[C@@H](CCCCNC(=O)CCCCCNC(=O)COCCOCCNC(=O)CC[C@H](NC(=O)CCCCCCCCCCCCC(=O)O)C(=O)O)C(=O)NCC(=O)NCC(=O)N1CCC[C@H]1C(=O)N[C@@H](CO)C(=O)N[C@@H](CO)C(=O)NCC(=O)N[C@@H](C)C(=O)N1CCC[C@H]1C(=O)N1CCC[C@H]1C(=O)N1CCC[C@H]1C(=O)N[C@@H](CO)C(N)=O [Example 451]
Emax (hGIPR): 89.5% | EC50 (hGIPR): 0.0113 nM | Ki [1]: 258 nM | EC50 (hGCGR; [7]): > 9950 nM | EC50 (hGCGR; [8]): > 9950 nM | Ki [2]: 0.0239 nM | Ki [3]: 0.234 nM | Emax (hGLP-1R; 0.1% bovine casein, arithmetic mean): 118% | EC50 (hGLP-1R): 0.172 nM

CC[C@H](C)[C@H](NC(=O)[C@H](CC(C)C)NC(=O)[C@](C)(Cc1ccc(O)cc1)NC(=O)[C@H](CCCCNC(=O)COCCOCCNC(=O)COCCOCCNC(=O)COCCOCCNC(=O)CC[C@H](NC(=O)CCCCCCCCCCCCC(=O)O)C(=O)O)NC(=O)[C@@H](NC(=O)[C@H](Cc1ccccc1)NC(=O)[C@H](CCCN)NC(=O)C(C)(C)NC(=O)[C@H](CCC(N)=O)NC(=O)[C@H](C)NC(=O)[C@H](CCC(N)=O)NC(=O)[C@H](CCCN)NC(=O)[C@H](CC(=O)O)NC(=O)[C@H](CC(C)C)NC(=O)[C@](C)(CC(C)C)NC(=O)[C@@H](NC(=O)C(C)(C)NC(=O)[C@H](Cc1ccc(O)cc1)NC(=O)[C@H](CC(=O)O)NC(=O)[C@H](CO)NC(=O)[C@@H](NC(=O)[C@](C)(Cc1ccccc1F)NC(=O)[C@@H](NC(=O)CNC(=O)[C@H](CCC(=O)O)NC(=O)C(C)(C)NC(=O)[C@@H](N)Cc1ccc(O)cc1)[C@@H](C)O)[C@@H](C)O)[C@@H](C)CC)[C@@H](C)CC)C(=O)N[C@@H](CCCCNC(=O)COCCOCCNC(=O)COCCOCCNC(=O)COCCOCCNC(=O)CC[C@H](NC(=O)CCCCCCCCCCCCC(=O)O)C(=O)O)C(=O)NCC(=O)NCC(=O)N1CCC[C@H]1C(=O)N[C@@H](CO)C(=O)N[C@@H](CO)C(=O)NCC(=O)N[C@@H](C)C(=O)N1CCC[C@H]1C(=O)N1CCC[C@H]1C(=O)N1CCC[C@H]1C(=O)N[C@@H](CO)C(N)=O [Example 479]
Emax (hGIPR): 89.5% | EC50 (hGIPR): 0.00718 nM | Ki [1]: 213 nM | EC50 (hGCGR; [7]): > 9950 nM | EC50 (hGCGR; [8]): > 9950 nM | Ki [2]: 0.0249 nM | Ki [3]: 0.246 nM | Emax (hGLP-1R; 0.1% bovine casein and 1.0% human serum albumin): 95.3% | EC50 (hGLP-1R): 0.115 nM

CCCCCCCCCCCC(=O)N[C@@H](CCC(=O)NCCOCCOCC(=O)NCCOCCOCC(=O)NCCCC[C@H](NC(=O)[C@H](CCCN)NC(=O)[C@H](CC(=O)O)NC(=O)[C@H](CC(C)C)NC(=O)[C@](C)(CC(C)C)NC(=O)[C@@H](NC(=O)C(C)(C)NC(=O)[C@H](Cc1ccncc1)NC(=O)[C@H](CC(=O)O)NC(=O)[C@H](CO)NC(=O)[C@@H](NC(=O)[C@](C)(Cc1ccccc1F)NC(=O)[C@@H](NC(=O)CNC(=O)[C@H](CCC(=O)O)NC(=O)C(C)(C)NC(=O)[C@@H](N)Cc1ccc(O)cc1)[C@@H](C)O)[C@@H](C)O)[C@@H](C)CC)C(=O)N[C@@H](C)C(=O)N[C@@H](CCC(N)=O)C(=O)NC(C)(C)C(=O)NCC(=O)N[C@@H](Cc1ccccc1)C(=O)N[C@H](C(=O)N[C@H](CCC(=O)O)C(=O)N[C@@](C)(Cc1ccc(O)cc1)C(=O)N[C@@H](CC(C)C)C(=O)N[C@H](C(=O)N[C@@H](CCCCNC(=O)COCCOCCNC(=O)COCCOCCNC(=O)CC[C@H](NC(=O)CCCCCCCCCCC)C(=O)O)C(=O)NCC(=O)NCC(=O)N1CCC[C@H]1C(=O)N[C@@H](CO)C(=O)N[C@@H](CO)C(=O)NCC(=O)N[C@@H](C)C(=O)N1CCC[C@H]1C(=O)N1CCC[C@H]1C(=O)N1CCC[C@H]1C(=O)N[C@@H](CO)C(N)=O)[C@@H](C)CC)[C@@H](C)CC)C(=O)O [Example 494]
Emax (hGIPR): 92.6% | EC50 (hGIPR): 0.0123 nM | Ki [1]: 135 nM | EC50 (hGCGR; [7]): > 9950 nM | EC50 (hGCGR; [8]): > 9950 nM | Ki [2]: 0.0197 nM | Ki [3]: 0.188 nM | EC50 (hGLP-1R): 0.15 nM

B1: Example 223 (peptide)
peptide: YXEGTXTSDXSIXLDXIAQXEFIXXLIKGGPSSGAPPPSK
modifications: Y-Aib-EGT-αMeF(2F)-TSD-4Pal-SI-αMeL-LD-Orn-IAQ-Aib-EFI-(D-Glu)-αMeY-LIK((2-[2-(2-Amino-ethoxy)-ethoxy]-acetyl)2-CO-(CH2)12-CO2H)GGPSSGAPPPSK((2-[2-(2-Amino-ethoxy)-ethoxy]-acetyl)2-CO-(CH2)12-CO2H)-NH2
cAMP EC50 [4]: 0.0252 nM | cAMP Emax [4]: 103% | cAMP EC50 [5]: > 9950 nM | cAMP EC50 [6]: 1.43 nM | cAMP Emax [6]: 94% | cAMP EC50 (1.0% HSA) (human glucagon receptor): > 9950 nM | cAMP EC50 (1.0% HSA) (human GIP receptor): 7.84 nM | cAMP Emax (1.0% HSA) (human GIP receptor): 79.2% | cAMP EC50 (1.0% HSA) (human GLP-1 receptor): 90.5 nM | cAMP Emax (1.0% HSA) (human GLP-1 receptor): 115%
